US8231693B2, “5-substituted 2-(alkoxymethyl)furans” (Furanix Technologies B.V., priority 2007, dated 2012)

Test: Fuel solubility: miscibility in blends with commercial diesel
Type: physicochemical
Description: Fuel solubility is a primary concern for diesel fuel applications. Not all highly polar oxygenates have good solubility in the current commercial diesel fuels.

[1] = all blend ratios with commercial diesel

Row | miscibility with commercial diesel (5 vol % blend with commercial diesel) | miscibility with commercial diesel (25 vol % blend with diesel) | miscibility with commercial diesel (40 vol % blend with diesel) | Compound | miscibility with commercial diesel [1]
1 | – | – | – | CCOCc1ccc(COC(C)(C)C)o1 [5-(tertbutoxymethyl)-2-(ethoxymethyl)furan] | miscible in all blend ratio's
2 | – | – | – | CCOCc1ccc(COCC)o1 [2,5-di(ethoxymethyl)furan] | miscible in all blend ratio's
3 | completely miscible | phase separation occurs | phase separation occurs | CCOCc1ccc(C=O)o1 [EMF, 5-(ethoxymethyl)furfural] | –
